From patent publication US11077123B2 (priority 2016, dated 2021)

Legend:
[1] = tested on: pESI conjugation between S. Infantis 119944 (donor) and E. coli ORN172 (recipient); assay: pESI conjugation (mating) experiments on LB agar plates; format: cell-based, Salmonella enterica serovar Infantis; E. coli; conditions: pESI transfer, LB agar plates supplemented with 2% (w/v) of the substance
[2] = tested on: S. Infantis and the E. coli strains; assay: Bacterial viability / growth in the conjugation experiments; format: cell-based, Salmonella enterica serovar Infantis; E. coli; conditions: 2% of the substance
[3] = tested on: Clostridium perfringens; conditions: varying concentrations; cited from earlier work

NCCS(=O)(=O)O [taurine, 2-aminoethanesulfonic acid]
conjugation frequency [1]: inhibit conjugation to a lower degree | growth (rate) of S. Infantis and the E. coli strains [2]: no effect on the growth rate

C[C@H](CCC(=O)O)[C@H]1CC[C@H]2[C@@H]3[C@H](O)C[C@@H]4C[C@H](O)CC[C@]4(C)[C@H]3CC[C@]12C [chenodeoxycholic acid]
conjugation frequency [1]: transconjugants in the presence of these regents were not produced | growth (rate) of S. Infantis and the E. coli strains [2]: inhibited the growth

C[C@H](CCC(=O)O)[C@H]1CC[C@H]2[C@@H]3[C@H](O)C[C@@H]4C[C@H](O)CC[C@]4(C)[C@H]3C[C@H](O)[C@]12C [cholic acid]
conjugation frequency [1]: significant decrease

C[C@H](CCC(=O)NCCS(=O)(=O)O)[C@H]1CC[C@H]2[C@@H]3[C@H](O)C[C@@H]4C[C@H](O)CC[C@]4(C)[C@H]3CC[C@]12C [taurine-conjugated chenodeoxycholic acid]
bacterial viability [3]: significantly reduced bacterial viability

NCC(=O)O [glycine]
conjugation frequency [1]: transconjugants in the presence of these regents were not produced | growth (rate) of S. Infantis and the E. coli strains [2]: inhibited the growth

C[C@H](CCC(=O)O)[C@H]1CC[C@H]2[C@@H]3CC[C@@H]4C[C@H](O)CC[C@]4(C)[C@H]3CC[C@]12C [lithocholic acid, 3α-hydroxy-5β-cholan-24-oic acid]
conjugation frequency [1]: significant decrease | growth (rate) of S. Infantis and the E. coli strains [2]: no effect on the growth rate

C[C@H](CCC(=O)NCC(=O)O)[C@H]1CC[C@H]2[C@@H]3[C@H](O)C[C@@H]4C[C@H](O)CC[C@]4(C)[C@H]3CC[C@]12C [glycine-conjugated chenodeoxycholic acid]
bacterial viability [3]: significantly reduced bacterial viability
